The test concerns the target T1, BTK (Homo sapiens, UniProt Q06187).
T1 construct: purchased Upstate 14-552
The test can be described thus: In vitro BTK kinase assay: BTK-POLYGAT-LS ASSAY. The following applies: ATP 10 uM. It is filed as biochemical. The method, then:
In vitro BTK kinase assay: BTK-POLYGAT-LS ASSAY. The purpose of the BTK in vitro assay is to determine compound potency against BTK through the measurement of IC50. […] A 24 μL aliquot of a ATP/peptide master mix (final concentration; ATP 10 μM, polyGAT 100 nM) in kinase buffer (10 mM Tris-HCl pH 7.5, 10 mM MgCl2, 200 μM Na3VO4, 5 mM DTT, 0.01% Triton X-100, and 0.2 mg/ml Casein) is added to each well. […] The assay is incubated for 30 minutes before being stopped with 28 μL of a 50 mM EDTA solution. […] The plate is covered and incubated for 45 minutes at room temperature. Time resolved fluorescence (TRF) on Molecular Devices M5 (332 nm excitation; 488 nm emission; 518 nm fluorescein emission) is measured.
T1 sequence (Q06187 whole entry): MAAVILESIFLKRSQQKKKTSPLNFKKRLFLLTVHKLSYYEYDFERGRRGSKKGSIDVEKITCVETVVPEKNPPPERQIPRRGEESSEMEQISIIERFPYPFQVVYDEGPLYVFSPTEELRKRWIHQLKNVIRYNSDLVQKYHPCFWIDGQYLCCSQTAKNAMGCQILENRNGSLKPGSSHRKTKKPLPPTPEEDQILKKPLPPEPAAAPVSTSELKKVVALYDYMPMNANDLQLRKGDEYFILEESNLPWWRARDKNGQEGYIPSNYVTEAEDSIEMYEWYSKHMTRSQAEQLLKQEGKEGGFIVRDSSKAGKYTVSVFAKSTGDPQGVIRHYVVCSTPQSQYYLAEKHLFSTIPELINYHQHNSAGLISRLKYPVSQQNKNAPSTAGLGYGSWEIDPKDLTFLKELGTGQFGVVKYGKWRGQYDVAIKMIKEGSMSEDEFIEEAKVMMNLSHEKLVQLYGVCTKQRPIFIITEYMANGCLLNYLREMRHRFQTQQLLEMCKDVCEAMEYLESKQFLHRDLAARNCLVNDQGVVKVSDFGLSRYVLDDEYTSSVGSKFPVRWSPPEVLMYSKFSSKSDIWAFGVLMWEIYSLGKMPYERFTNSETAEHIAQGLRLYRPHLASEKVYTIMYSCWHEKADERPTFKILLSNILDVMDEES
What is called IC50 is the point on the concentration scale where inhibition reaches its midpoint. A low value points to higher potency. Take `O=C(CNc1cccc(Cl)c1Cl)NC1CCCN(c2ncnc3[nH]ccc23)C1` (centres unmarked) [Example 27, (N-(1-(7H-pyrrolo[2,3-d]pyrimidin-4-yl)piperidin-3-yl)-2-(2,3-dichlorophenylamino)acetamide)]: the IC50 lay within 100 to 999 nM.
`CS(=O)(=O)c1cccc(NCC(=O)NC2CCCN(c3ncnc4[nH]ccc34)C2)c1` (centres unmarked) [Example 28, (N-(1-(7H-pyrrolo[2,3-d]pyrimidin-4-yl)piperidin-3-yl)-2-(3-(methylsulfonyl)phenylamino)acetamide)] showed an IC50 of 1000 to 10000 nM.
`CCc1cccc(CC)c1NCC(=O)NC1CCCN(c2ncnc3[nH]ccc23)C1` (centres unmarked) [Example 30, (N-(1-(7H-pyrrolo[2,3-d]pyrimidin-4-yl)piperidin-3-yl)-2-(2,6-diethylphenylamino)acetamide)] registered an IC50 of 1000 to 10000 nM.
The compound `Cc1cccc(NCC(=O)NC2CCCN(c3ncnc4[nH]ccc34)C2)c1` (centres unmarked) [Example 31, (N-(1-(7H-pyrrolo[2,3-d]pyrimidin-4-yl)piperidin-3-yl)-2-(m-tolylamino)acetamide)] gave an IC50 of 100 to 999 nM.
Regarding `COc1cccc(NCC(=O)NC2CCCN(c3ncnc4[nH]ccc34)C2)c1` (centres unmarked) [Example 32, (N-(1-(7H-pyrrolo[2,3-d]pyrimidin-4-yl)piperidin-3-yl)-2-(3-methoxyphenylamino)acetamide)], the IC50 was in the range of 100 to 999 nM.
Take `O=C(CNc1ccc(F)cc1)NC1CCCN(c2ncnc3[nH]ccc23)C1` (centres unmarked) [Example 33, (N-(1-(7H-pyrrolo[2,3-d]pyrimidin-4-yl)piperidin-3-yl)-2-(4-fluorophenylamino)acetamide)]: the IC50 fell in the range of 1000 to 10000 nM.
As to `O=C(CNc1cc(Cl)ccc1Cl)NC1CCCN(c2ncnc3[nH]ccc23)C1` (centres unmarked) [Example 35, (N-(1-(7H-pyrrolo[2,3-d]pyrimidin-4-yl)piperidin-3-yl)-2-(2,5-dichlorophenylamino)acetamide)], the IC50 lay in the range of 100 to 999 nM.
`COc1ccccc1NCC(=O)NC1CCCN(c2ncnc3[nH]ccc23)C1` (centres unmarked) [Example 37, (N-(1-(7H-pyrrolo[2,3-d]pyrimidin-4-yl)piperidin-3-yl)-2-(2-methoxyphenylamino)acetamide)] registered an IC50 of 100 to 999 nM.
The figure for `O=C(CNc1cccc(-c2ccccc2)c1)NC1CCCN(c2ncnc3[nH]ccc23)C1` (centres unmarked) [Example 39, (N-(1-(7H-pyrrolo[2,3-d]pyrimidin-4-yl)piperidin-3-yl)-2-(biphenyl-3-ylamino-)acetamide)] is below 100 nM.
The figure for `O=C(CNc1cccc(Br)c1)NC1CCCN(c2ncnc3[nH]ccc23)C1` (centres unmarked) [Example 40, (N-(1-(7H-pyrrolo[2,3-d]pyrimidin-4-yl)piperidin-3-yl)-2-(3-bromophenylamino)acetamide)] is below 100 nM.
Take `O=C(CNc1cccc2c1CCCC2)NC1CCCN(c2ncnc3[nH]ccc23)C1` (centres unmarked) [Example 41, (N-(1-(7H-pyrrolo[2,3-d]pyrimidin-4-yl)piperidin-3-yl)-2-(5,6,7,8-tetrahydronaphthalen-1-ylamino)acetamide)]: the IC50 is below 100 nM.
The value for `O=C(CNc1cccc(Oc2ccccc2)c1)NC1CCCN(c2ncnc3[nH]ccc23)C1` (centres unmarked) [Example 42, (N-(1-(7H-pyrrolo[2,3-d]pyrimidin-4-yl)piperidin-3-yl)-2-(3-phenoxyphenylamino)acetamide)] was 100 to 999 nM; that for `CN(C)C(=O)c1cccc(NCC(=O)NC2CCCN(c3ncnc4[nH]ccc34)C2)c1` (centres unmarked) [Example 43, (3-(2-(1-(7H-pyrrolo[2,3-d]pyrimidin-4-yl)piperidin-3-ylamino)-2-oxoethylamino)-N,N-dimethylbenzamide)] was 1000 to 10000 nM; that for `O=C(CNc1cccc2c1CCC2)NC1CCCN(c2ncnc3[nH]ccc23)C1` (centres unmarked) [Example 45, (N-(1-(7H-pyrrolo[2,3-d]pyrimidin-4-yl)piperidin-3-yl)-2-(2,3-dihydro-1H-inden-4-ylamino)acetamide)] was below 100 nM.
In the case of `O=C(CNc1cccc2ccccc12)NC1CCCN(c2ncnc3[nH]ccc23)C1` (centres unmarked) [Example 46, (N-(1-(7H-pyrrolo[2,3-d]pyrimidin-4-yl)piperidin-3-yl)-2-(naphthalen-1-ylamino)acetamide)], the IC50 was below 100 nM.
The value for `CC(C)Oc1cccc(NCC(=O)NC2CCCN(c3ncnc4[nH]ccc34)C2)c1` (centres unmarked) [Example 50, (N-(1-(7H-pyrrolo[2,3-d]pyrimidin-4-yl)piperidin-3-yl)-2-(3-isopropoxyphenylamino)acetamide)] was 1000 to 10000 nM.
The value for `Cc1c(Cl)cccc1NCC(=O)NC1CCCN(c2ncnc3[nH]ccc23)C1` (centres unmarked) [Example 52, (N-(1-(7H-pyrrolo[2,3-d]pyrimidin-4-yl)piperidin-3-yl)-2-(3-chloro-2-methylphenylamino)acetamide)] was 100 to 999 nM; that for `COc1c(Cl)cccc1NCC(=O)NC1CCCN(c2ncnc3[nH]ccc23)C1` (centres unmarked) [Example 53, (N-(1-(7H-pyrrolo[2,3-d]pyrimidin-4-yl)piperidin-3-yl)-2-(3-chloro-2-methoxyphenylamino)acetamide)] was 100 to 999 nM; that for `O=C(CNc1cccc2c1CNC2=O)NC1CCCN(c2ncnc3[nH]ccc23)C1` (centres unmarked) [Example 54, (N-(1-(7H-pyrrolo[2,3-d]pyrimidin-4-yl)piperidin-3-yl)-2-(1-oxoisoindolin-4-ylamino)acetamide)] was above 10000 nM.
With `C#Cc1cccc(NCC(=O)NC2CCCN(c3ncnc4[nH]ccc34)C2)c1` (centres unmarked) [Example 55, (N-(1-(7H-pyrrolo[2,3-d]pyrimidin-4-yl)piperidin-3-yl)-2-(3-ethynylphenylamino)acetamide)], the IC50 is below 100 nM.
On to `O=C(CNc1cccc(N2CCCC2)c1)NC1CCCN(c2ncnc3[nH]ccc23)C1` (centres unmarked) [Example 56, (N-(1-(7H-pyrrolo[2,3-d]pyrimidin-4-yl)piperidin-3-yl)-2-(3-(pyrrolidin-1-yl)phenylamino)acetamide)], for which the IC50 was in the range of 100 to 999 nM.
As for `Cn1nc(C(C)(C)C)cc1NCC(=O)NC1CCCN(c2ncnc3[nH]ccc23)C1` (centres unmarked) [Example 57, (N-(1-(7H-pyrrolo[2,3-d]pyrimidin-4-yl)piperidin-3-yl)-2-(3-ten-butyl-1-methyl-1H-pyrazol-5-ylamino)acetamide)], the IC50 lay in the range of 1000 to 10000 nM.
Regarding `Cc1cc(NCC(=O)NC2CCCN(c3ncnc4[nH]ccc34)C2)n(C(C)(C)C)n1` (centres unmarked) [Example 58, (N-(1-(7H-pyrrolo[2,3-d]pyrimidin-4-yl)piperidin-3-yl)-2-(1-tert-butyl-3-methyl-1H-pyrazol-5-ylamino)acetamide)], the IC50 is above 10000 nM.
Regarding `O=C(CNc1cccnc1)NC1CCCN(c2ncnc3[nH]ccc23)C1` (centres unmarked) [Example 59, (N-(1-(7H-pyrrolo[2,3-d]pyrimidin-4-yl)piperidin-3-yl)-2-(pyridin-3-ylamino)acetamide)], the IC50 is above 10000 nM.
In turn, `Cn1ccc(-c2cccc(NCC(=O)NC3CCCN(c4ncnc5[nH]ccc45)C3)c2)n1` (centres unmarked) [Example 60] returned an IC50 of 1000 to 10000 nM.
The figure for `CN(C)c1cccc(NCC(=O)NC2CCCN(c3ncnc4[nH]ccc34)C2)c1` (centres unmarked) [Example 61, (N-(1-(7H-pyrrolo[2,3-d]pyrimidin-4-yl)piperidin-3-yl)-2-(3-(dimethylamino)phenylamino)acetamide)] is 1000 to 10000 nM; for `O=C(CNc1ccc(F)c(F)c1)NC1CCCN(c2ncnc3[nH]ccc23)C1` (centres unmarked) [Example 62, (N-(1-(7H-pyrrolo[2,3-d]pyrimidin-4-yl)piperidin-3-yl)-2-(3,4-difluorophenylamino)acetamide)] it is 100 to 999 nM.
Turning to `O=C(CNc1cc(F)cc(C(F)(F)F)c1)NC1CCCN(c2ncnc3[nH]ccc23)C1` (centres unmarked) [Example 63, (N-(1-(7H-pyrrolo[2,3-d]pyrimidin-4-yl)piperidin-3-yl)-2-(3-fluoro-5-(trifluoromethyl)phenylamino)acetamide)], the IC50 is below 100 nM.
Compound `Cc1c(NCC(=O)NC2CCCN(c3ncnc4[nH]ccc34)C2)cccc1C(F)(F)F` (centres unmarked) [Example 64, (N-(1-(7H-pyrrolo[2,3-d]pyrimidin-4-yl)piperidin-3-yl)-2-(2-methyl-3-(trifluoromethyl)phenylamino)acetamide)] gave an IC50 of 100 to 999 nM.
The figure for `Cc1ccc(NCC(=O)NC2CCCN(c3ncnc4[nH]ccc34)C2)cc1C(F)(F)F` (centres unmarked) [Example 65, (N-(1-(7H-pyrrolo[2,3-d]pyrimidin-4-yl)piperidin-3-yl)-2-(4-methyl-3-(trifluoromethyl)phenylamino)acetamide)] is 100 to 999 nM.
On to `N#Cc1ccccc1NCC(=O)NC1CCCN(c2ncnc3[nH]ccc23)C1` (centres unmarked) [Example 66, (N-(1-(7H-pyrrolo[2,3-d]pyrimidin-4-yl)piperidin-3-yl)-2-(2-cyanophenylamino)acetamide)], for which the IC50 was in the range of 1000 to 10000 nM.
The figure for `O=C(CNc1ccc(F)cc1F)NC1CCCN(c2ncnc3[nH]ccc23)C1` (centres unmarked) [Example 67, (N-(1-(7H-pyrrolo[2,3-d]pyrimidin-4-yl)piperidin-3-yl)-2-(2,4-difluorophenylamino)acetamide)] is 100 to 999 nM.
In turn, `O=C(CNc1cc(F)cc(F)c1)NC1CCCN(c2ncnc3[nH]ccc23)C1` (centres unmarked) [Example 68, (N-(1-(7H-pyrrolo[2,3-d]pyrimidin-4-yl)piperidin-3-yl)-2-(3,5-difluorophenylamino)acetamide)] returned a concentration for half-maximal inhibition (IC50) below 100 nM.
Compound `O=C(CNc1cc(C(F)(F)F)ccc1F)NC1CCCN(c2ncnc3[nH]ccc23)C1` (centres unmarked) [Example 69, (N-(1-(7H-pyrrolo[2,3-d]pyrimidin-4-yl)piperidin-3-yl)-2-(2-fluoro-5-(trifluoromethyl)phenylamino)acetamide)] came in with an IC50 of 1000 to 10000 nM.
`O=C(CNc1cccc(C(F)(F)F)c1F)NC1CCCN(c2ncnc3[nH]ccc23)C1` (centres unmarked) [Example 70, (N-(1-(7H-pyrrolo[2,3-d]pyrimidin-4-yl)piperidin-3-yl)-2-(2-fluoro-3-(trifluoromethyl)phenylamino)acetamide)] registered a half-inhibitory concentration (IC50) of 100 to 999 nM.
